pIC50: −log10 of the molar value. Values after ≈ are worked out from the molar mass of the structure shown.
Tests used:
A431 [1] = experiment: Inhibition of cell growth by incorporation of [3H]-thymidine, A431; format: cell-based, human; details: Homo sapiens, A-431, read-out: IC50 A431
LS174T = experiment: Inhibition of cancer cell growth as measured by cell number, LS174T; format: cell-based; details: Homo sapiens, 48 h, read-out: IC50 LS174T
SKBR3 = experiment: Inhibition of cancer cell growth as measured by cell number, SKBR3; format: cell-based, human; details: Homo sapiens, SK-BR-3, 48 h, read-out: IC50 SKBR3, cell number, Sulforhodamine B, 48 hours exposure; Table 7;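 also: SK-BR-3 cells were selected as a line overexpressing HER2/neu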
Text: (§1) The cell lines were chosen since they overexpressed epidermal growth factor receptor (EGFR) (i.e. A431) or HER2/neu (SKBR3), or had little to no expression of the these receptors (SW620, LOX, MCF7).

LX1 = experiment: Inhibition of cancer cell growth as measured by cell number, LX1; format: cell-based; details: Homo sapiens, LX-1, 48 h, read-out: IC50 LX1
LNCAP = experiment: Inhibition of cancer cell growth as measured by cell number, LNCAP; format: cell-based; details: Homo sapiens, 48 h, read-out: IC50 LNCAP
PC3 = experiment: Inhibition of cancer cell growth as measured by cell number, PC3; format: cell-based; details: Homo sapiens, PC-3, 48 h, read-out: IC50 PC3
SW948 = experiment: Inhibition of cancer cell growth as measured by cell number, SW948; format: cell-based; details: Homo sapiens, SW948, 48 h, read-out: IC50 SW948
HL60 = experiment: Inhibition of cancer cell growth as measured by cell number, HL60; format: cell-based; details: Homo sapiens, HL-60, 48 h, read-out: IC50 HL60
B7474 = experiment: Inhibition of cancer cell growth as measured by cell number, B7474; format: cell-based; details: Homo sapiens, 48 h, read-out: IC50 B7474
A27805 = experiment: Inhibition of cancer cell growth as measured by cell number, A27805; format: cell-based; details: Homo sapiens, 48 h, read-out: IC50 A27805
A431 [2] = experiment: Inhibition of cancer cell growth as measured by cell number, A431; format: cell-based, human; details: Homo sapiens, A-431, 48 h, read-out: IC50 A431, cell number, Sulforhodamine B, 48 hours exposure; Table 6;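 also: human A431 line, picked because it overexpresses epidermal growth factor receptor (EGFR)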
Text: as §1

CX1 = experiment: Inhibition of cancer cell growth as measured by cell number, CX1; format: cell-based; details: Homo sapiens, CX-1, 48 h, read-out: IC50 CX1
SW620 = experiment: Inhibition of cancer cell growth as measured by cell number, SW620; format: cell-based, human; details: Homo sapiens, SW-620, 48 h, read-out: IC50 SW620, cell number, Sulforhodamine B, 48 hours exposure; Table 4;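 also: SW620 was included as a cell line with little or no EGFR or HER2/neu expression, in contrast to receptor-overexpressing lines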
Text: as §1

HTB161 = experiment: Inhibition of cancer cell growth as measured by cell number, HTB161; format: cell-based; details: Homo sapiens, 48 h, read-out: IC50 HTB161
A549 = experiment: Inhibition of cancer cell growth as measured by cell number, A549; format: cell-based; details: Homo sapiens, A549, 48 h, read-out: IC50 A549
NHEK = experiment: Inhibition of cell growth by incorporation of [3H]-thymidine, NHEK; format: cell-based, human; details: Homo sapiens, read-out: IC50 NHEK
Experimental: Representative compounds of this invention were evaluated for their ability to inhibit the growth of the cell lines described below in vitro. The inhibition is quantitated by measuring the decrease in the incorporation of radio-labeled thymidine when the cells are grown in the presence of the inhibitor. […] Cells were routinely grown in a humidified incubator in 5% CO2 in air.
Cells were seeded at 10,000 cells/well in 96 well plates in complete media and allowed to grow to log phase. At this stage the complete media was replaced with media containing 0.5% FBS (for cells growing in 10% FBS) or media lacking epidermal growth factor (EGF) (for cells growing in serum free media). […] Media with test compound was then removed and complete media was added back. The cells were allowed to grow for 18 hours. This is followed by incubation in [^3H]thymidine (1mCi/ml in serum/EGF media) for 4 hours. Cells were lysed in 0.5 M NaOH for at least 30 min at 37°C and radioactivity analyzed.
The % inhibition of the compound evaluated was determined for at least three different concentrations and the IC50 value evaluated from the dose response curve. […] CPM(control) is in units of counts per minute and is a number expressing the amount of [^3H]thymidine incorporated onto the DNA when cells are grown in the absence of test compound as measured by liquid scintillation counting.

DU145 = experiment: Inhibition of cancer cell growth as measured by cell number, DU145; format: cell-based; details: Homo sapiens, DU-145, 48 h, read-out: IC50 DU145
A2780DDP = experiment: Inhibition of cancer cell growth as measured by cell number, A2780DDP; format: cell-based; details: Homo sapiens, 48 h, read-out: IC50 A2780DDP
NEC = experiment: Inhibition of cancer cell growth as measured by cell number, NEC; format: cell-based; details: Homo sapiens, 48 h, read-out: IC50 NEC
CCL228 = experiment: Inhibition of cancer cell growth as measured by cell number, CCL228; format: cell-based; details: Homo sapiens, 48 h, read-out: IC50 CCL228
MCF7 = experiment: Inhibition of cancer cell growth as measured by cell number, MCF7; format: cell-based, human; details: Homo sapiens, MCF7, 48 h, read-out: IC50 MCF7, cell number, Sulforhodamine B, 48 hours exposure; Table 5;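 also: MCF7 was included as a line with little or no EGFR or HER2/neu expression, in contrast to the receptor-overexpressing lines of the panel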
Text: as §1

T47D = experiment: Inhibition of cancer cell growth as measured by cell number, T47D; format: cell-based; details: Homo sapiens, 48 h, read-out: IC50 T47D
HCT15 = experiment: Inhibition of cancer cell growth as measured by cell number, HCT15; format: cell-based; details: Homo sapiens, HCT-15, 48 h, read-out: IC50 HCT15
CACO2 = experiment: Inhibition of cancer cell growth as measured by cell number, CACO2; format: cell-based; details: Homo sapiens, Caco-2, 48 h, read-out: IC50 CACO2
[3] = target: recombinant human MEK 1 (MAPKK) and recombinant human ERK2 (MAPK); experiment: Mitogen Activated Protein Kinase (MAPK) assay, two component coupled MEK 1 / ERK2; format: biochemical; details: separate entries for the same compound = evaluated more than one time;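 also: MEK 1-activated ERK2 phosphorylates MBP or Myc peptide with 33P-ATP, filter capture and scintillation counting, inhibitor preincubated with ERK2 30 min at 0 °C, inhibition relative to uninhibited control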
COLO205 = experiment: Inhibition of cancer cell growth as measured by cell number, COLO205; format: cell-based; details: Homo sapiens, COLO 205, 48 h, read-out: IC50 COLO205
MIP = experiment: Inhibition of cancer cell growth as measured by cell number, MIP; format: cell-based; details: Homo sapiens; cell number, Sulforhodamine B, 48 hours exposure; Table 4; read-out: IC50 MIP
CCRF-CFM = experiment: Inhibition of cancer cell growth as measured by cell number, CCRF-CFM; format: cell-based; details: Homo sapiens, 48 h, read-out: IC50 CCRF-CFM
LOX = experiment: Inhibition of cancer cell growth as measured by cell number, LOX; format: cell-based, human; details: Homo sapiens, LOX, 48 h, read-out: IC50 LOX, cell number, Sulforhodamine B, 48 hours exposure; Table 6;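 also: LOX cells served as a line with low or absent EGFR and HER2/neu expression, in contrast to receptor-overexpressing lines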
Text: as §1

[4] = target: epidermal growth factor receptor kinase (Homo sapiens, UniProt P00533); experiment: biochemical
Sequence of epidermal growth factor receptor kinase (P00533 25-1210): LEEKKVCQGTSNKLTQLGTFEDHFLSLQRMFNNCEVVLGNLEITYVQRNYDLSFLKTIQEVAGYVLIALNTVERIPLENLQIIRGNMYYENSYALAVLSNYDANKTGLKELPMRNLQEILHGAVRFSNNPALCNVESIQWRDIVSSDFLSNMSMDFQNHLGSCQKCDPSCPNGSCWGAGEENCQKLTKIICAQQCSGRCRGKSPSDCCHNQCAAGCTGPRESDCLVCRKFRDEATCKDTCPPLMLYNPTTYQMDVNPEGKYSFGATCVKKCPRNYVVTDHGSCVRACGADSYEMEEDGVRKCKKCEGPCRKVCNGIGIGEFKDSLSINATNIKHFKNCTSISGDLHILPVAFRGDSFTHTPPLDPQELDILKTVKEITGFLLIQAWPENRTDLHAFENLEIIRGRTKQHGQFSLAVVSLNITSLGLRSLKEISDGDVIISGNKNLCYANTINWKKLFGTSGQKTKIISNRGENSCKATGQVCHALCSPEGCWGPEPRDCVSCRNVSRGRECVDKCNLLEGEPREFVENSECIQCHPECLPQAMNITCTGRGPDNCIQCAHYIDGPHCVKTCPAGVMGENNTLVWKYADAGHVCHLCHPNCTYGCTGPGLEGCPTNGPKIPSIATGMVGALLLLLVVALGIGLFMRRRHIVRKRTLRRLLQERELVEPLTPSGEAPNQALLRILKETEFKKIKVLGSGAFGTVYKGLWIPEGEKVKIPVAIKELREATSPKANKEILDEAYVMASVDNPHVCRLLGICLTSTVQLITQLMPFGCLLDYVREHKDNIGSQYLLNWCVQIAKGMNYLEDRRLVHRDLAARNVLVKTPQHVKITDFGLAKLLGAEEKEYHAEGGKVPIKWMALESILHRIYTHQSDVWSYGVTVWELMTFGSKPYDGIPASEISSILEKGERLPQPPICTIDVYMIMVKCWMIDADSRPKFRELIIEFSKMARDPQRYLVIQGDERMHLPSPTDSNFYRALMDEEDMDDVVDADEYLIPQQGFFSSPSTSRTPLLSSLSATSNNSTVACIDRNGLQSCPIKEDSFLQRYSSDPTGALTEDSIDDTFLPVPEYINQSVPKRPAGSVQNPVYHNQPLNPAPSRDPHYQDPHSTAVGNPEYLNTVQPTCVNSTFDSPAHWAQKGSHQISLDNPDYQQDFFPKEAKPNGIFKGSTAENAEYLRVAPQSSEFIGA
Experimental: The enzyme was obtained as a membrane extract of A431 cells (American Type Culture Collection, Rockville, MD). A431 cells were grown in T175 flasks to 80% confluency. The cells were washed twice with phosphate buffered saline (PBS) without Ca^2+. Flasks were rotated for 1.5 hours in 20 ml PBS with 1.0 mM ethylenediaminetetraacetic acid (EDTA) at room temperature and centrifuged at 600g for 10 minutes. The cells were solubilized in 1 ml per 5 x 10^6 cells of cold lysis buffer {10mM 4-(2-hydroxyethyl)-1-piperazineethane-sulfonic acid (HEPES), pH 7.6, 10 mM NaCl, 2mM EDTA, 1mM phenylmethyl-sulfonyl-fluoride (PMSF), 10 mg/ml aprotinin, 10 mg/ml leupeptin, 0.1 mM sodium orthovanadate} in a Dounce homogenizer with 10 strokes on ice. The lysate was centrifuged at 600g for 10 minutes first to clear cell debris and the supernatant further centrifuged at 100,000 g for 30 min at 4°C. The membrane pellet was suspended in 1.5 ml HNG buffer (50 mM HEPES, pH 7.6, 125 mM NaCl, 10% glycerol). The membrane extract was divided into aliquots, immediately frozen in liquid nitrogen and stored at -70°C.
Compounds to be evaluated were made into 10 mg/ml stock solutions in 100% dimethylsulfoxide (DMSO). Prior to experiment, stock solutions were diluted to 500 mM with buffer (30 mM Hepes pH 7.4) and then serially diluted to the desired concentration.
An aliquot of the A431 membrane extract (10 mg/ml) was diluted in 30 mM HEPES (pH 7.4) to give a protein concentration of 50 ug/ml. […] To this was added the ^33p-ATP (10 mCi/ml) diluted 1:10 in assay buffer along with the substrate peptide at a concentration of 0.5 mM (control reactions get no test compound) and the reaction was allowed to proceed for 30 min at 30°C. The reaction was stopped with 10% TCA and left on ice for at least 10 min after which tubes were microcentrifuged at full speed for 15 min. The a portion of the supernatants were spotted on P81 phosphocellulose discs and washed twice in 1% acetic acid then water for 5 min each followed by scintillation counting. […] The % inhibition of the test compound was determined for at least three different concentrations and the IC50 value was evaluated from the dose response curve. […] CPM(control) is in units of counts per minute and was a number expressing the amount of radiolabeled ATP (g-^33P) incorporated into the RR-SRC peptide substrate by the enzyme after 30 minutes at 30°C in the absence of test compound as measured by liquid scintillation counting. The CPM values were corrected for the background counts produced by ATP in the absence of the enzymatic reaction. The IC50 values reported in TABLE 1 are averages of the number of tests conducted.

Structure (SMILES)	pIC50 (A431 [1])	IC50 (LS174T)	IC50 (SKBR3)	IC50 (LX1)	IC50 (LNCAP)	IC50 (PC3)	IC50 (SW948)	IC50 (HL60)	IC50 (B7474)	IC50 (A27805)	IC50 (A431 [2])	IC50 (CX1)	IC50 (SW620)	IC50 (HTB161)	IC50 (A549)	pIC50 (NHEK)	IC50 (DU145)	IC50 (A2780DDP)	IC50 (NEC)	IC50 (CCL228)	further results
COc1cc2ncc(C#N)c(Nc3cccc(Br)c3)c2cc1N [Example 7, 6-Amino-4-[(3-bromophenyl)amino] -7-methoxy-3-quinolinecarbonitrile]	< 4.30	3.23 µg/mL (≈ 8.75 µM)	5.6 µg/mL (≈ 15.2 µM)	6.3 µg/mL (≈ 17.1 µM)	2.19 µg/mL (≈ 5.92 µM)	7.22 µg/mL (≈ 19.6 µM)	5.85 µg/mL (≈ 15.9 µM)	2.63 µg/mL (≈ 7.13 µM)	3.88 µg/mL (≈ 10.5 µM)	4.66 µg/mL (≈ 12.6 µM)	1.06 µg/mL (≈ 2.86 µM)	4.88 µg/mL (≈ 13.2 µM)	5.84 µg/mL (≈ 15.8 µM)	2.12 µg/mL (≈ 5.75 µM)	5.93 µg/mL (≈ 16.1 µM)	5.35	1.09 µg/mL (≈ 2.95 µM)	4.91 µg/mL (≈ 13.3 µM)	5.18 µg/mL (≈ 14 µM)	6.25 µg/mL (≈ 16.9 µM)	IC50 (MCF7): 5.67 µg/mL (≈ 15.4 µM); IC50 (T47D): 5.17 µg/mL (≈ 14 µM); IC50 (HCT15): 3.98 µg/mL (≈ 10.8 µM); IC50 (CACO2): 2.3 µg/mL (≈ 6.22 µM); pIC50 [3]: 4.60; IC50 (COLO205): 4.83 µg/mL (≈ 13.1 µM); IC50 (MIP): 2.39 µg/mL (≈ 6.48 µM); IC50 (CCRF-CFM): 3.44 µg/mL (≈ 9.3 µM); IC50 (LOX): 1.45 µg/mL (≈ 3.92 µM)
CC#CC(=O)Nc1cc2c(Nc3cccc(Br)c3)c(C#N)cnc2cc1OC [Example 8, N-[4-[(3-Bromophenyl)amino]-3-cyano-7-methoxy-6-guinolinyl]-2-butynamide]	4.40	2.03 µg/mL (≈ 4.66 µM)	38.3 µg/mL (≈ 87.9 µM)	0.932 µg/mL (≈ 2.14 µM)	59.4 µg/mL (≈ 137 µM)	53.4 µg/mL (≈ 123 µM)	86.9 µg/mL (≈ 200 µM)	18.9 µg/mL (≈ 43.5 µM)	55.5 µg/mL (≈ 127 µM)	0.912 µg/mL (≈ 2.09 µM)	9.59 µg/mL (≈ 22 µM)	7.55 µg/mL (≈ 17.3 µM)	2.5 µg/mL (≈ 5.75 µM)	98.8 µg/mL (≈ 227 µM)	7.28 µg/mL (≈ 16.7 µM)	6.70	6.47 µg/mL (≈ 14.9 µM)	6.79 µg/mL (≈ 15.6 µM)	9.3 µg/mL (≈ 21.4 µM)	8.67 µg/mL (≈ 19.9 µM)	pIC50 [4]: 6.82; IC50 (MCF7): 53.2 µg/mL (≈ 122 µM); IC50 (T47D): 39.5 µg/mL (≈ 90.7 µM); IC50 (HCT15): 10.9 µg/mL (≈ 25.1 µM); IC50 (CACO2): 2.33 µg/mL (≈ 5.35 µM); pIC50 [3]: < 4.00; IC50 (COLO205): 2.49 µg/mL (≈ 5.72 µM); IC50 (MIP): 0.354 µg/mL (≈ 0.813 µM); IC50 (CCRF-CFM): 0.823 µg/mL (≈ 1.89 µM); IC50 (LOX): 0.647 µg/mL (≈ 1.49 µM)

Reference: patent EP0973746B1, “SUBSTITUTED 3-CYANO QUINOLINES” (Wyeth Holdings Corporation, priority 1997, dated 1998)
